Laboratory results reported in US7767659B2, “Synthesis of naturally occurring ecteinascidins and related compounds” (Pharma Mar, S.A., priority 2002, dated 2010).
Like-named read-outs stand apart in the source and are kept apart here.

Key:
[1] = tested on: A-549; assay: cells
Procedure, shortened: (§1)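 Colorimetric SRB read (490 nm) on triplicate wells after 48 h at 37 °C, 5% CO2. Dose range 10 to 10^−8 μg/ml; 5×10^3 cells/well pre-attached 18 h.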

[2] = tested on: HT-29; assay: cells
Procedure, shortened: as §1

[3] = tested on: LoVo; assay: cells; conditions: for GI50: read-out: LOVO GI50; for CC50: read-out: LOVO LC50
Procedure, shortened: as §1

[4] = tested on: DU-145; assay: Inhibition of cells growth by colorimetric assay (SRB)
Procedure, shortened: as §1

[5] = tested on: HeLa-APL; assay: as above; conditions: for GI50: read-out: HELA-APL GI50; for CC50: read-out: HELA-APL LC50
Procedure, shortened: as §1

[6] = tested on: HeLa; assay: as above; conditions: for GI50: read-out: HELA GI50; for CC50: read-out: HELA LC50
Procedure, shortened: as §1

[7] = tested on: IGROV-1; assay: as above; conditions: for GI50: read-out: IGROV GI50; for CC50: read-out: IGROV LC50
Procedure, shortened: as §1

[8] = tested on: IGROV-ET; assay: as above; conditions: for GI50: read-out: IGROV-ET GI50; for CC50: read-out: IGROV-ET LC50
Procedure, shortened: as §1

[9] = tested on: K-562; assay: as above; conditions: for CC50: read-out: K562 LC50
Procedure, shortened: as §1

[10] = tested on: LNCaP; assay: as above
Procedure, shortened: as §1

[11] = tested on: LoVo-Dox; assay: as above; conditions: for GI50: read-out: LOVO-DOX GI50; for CC50: read-out: LOVO-DOX LC50
Procedure, shortened: as §1

[12] = tested on: PANC-1; assay: as above; conditions: for GI50: read-out: PANC-1 GI50; for CC50: read-out: PANC-1 LC50
Procedure, shortened: as §1

[13] = tested on: SK-BR-3; assay: as above; conditions: for CC50: read-out: SK-BR3 LC50
Procedure, shortened: as §1

[14] = tested on: SK-MEL-28; assay: as above
Procedure, shortened: as §1

[15] = HELA-APL, SRB, 48 hours exposure
[16] = IGROV-ET, SRB, 48 hours exposure
[17] = LOVO-DOX, SRB, 48 hours exposure

SMILES: COC1=C(C)C(=O)C2=C(C1=O)C1C3C4SCC(NC(C)=O)C(=O)OCC(c5c6c(c(C)c(OC(C)=O)c54)OCO6)N3C(O)C(C2)N1C (stereo not shown) [ET-637-quinone, ecteinascidin 637 quinone]
- A549 TGI ([1]; A549, SRB, 48 hours exposure): 1.09E−08 Molar
- GI50 ([1]; read-out: A549 GI50, A549, SRB, 48 hours exposure): 4.42 nM
- CC50 ([1]; read-out: A549 LC50, A549, SRB, 48 hours exposure): 51.5 nM
- HT29 TGI ([2]; HT29, SRB, 48 hours exposure): 7.78E−09 Molar
- GI50 ([2]; read-out: HT29 GI50, HT29, SRB, 48 hours exposure): 3.32 nM
- CC50 ([2]; read-out: HT29 LC50, HT29, SRB, 48 hours exposure): 2.26 µM
- LOVO TGI ([3]; LOVO, SRB, 48 hours exposure): 8.51E−09 Molar
- GI50 ([3]; LOVO, SRB, 48 hours exposure): 3.98 nM
- CC50 ([3]; LOVO, SRB, 48 hours exposure): 6.08 µM
- DU145 TGI ([4]; DU145, SRB, 48 hours exposure): 6.30E−09 Molar
- GI50 ([4]; read-out: DU145 GI50, DU145, SRB, 48 hours exposure): 3.74 nM
- CC50 ([4]; read-out: DU145 LC50, DU145, SRB, 48 hours exposure): 15.3 nM
- HELA-APL TGI [5, 15]: 5.12E−09 Molar
- GI50 [5, 15]: 2.39 nM
- CC50 [5, 15]: 10.9 nM
- HELA TGI ([6]; HELA, SRB, 48 hours exposure): 4.88E−09 Molar
- GI50 ([6]; HELA, SRB, 48 hours exposure): 2.24 nM
- CC50 ([6]; HELA, SRB, 48 hours exposure): 10.6 nM
- IGROV TGI ([7]; IGROV, SRB, 48 hours exposure): 5.80E−09 Molar
- GI50 ([7]; IGROV, SRB, 48 hours exposure): 2.76 nM
- CC50 ([7]; IGROV, SRB, 48 hours exposure): 12.1 nM
- IGROV-ET TGI [8, 16]: 6.91E−08 Molar
- GI50 [8, 16]: 34.2 nM
- CC50 [8, 16]: 139 nM
- K562 TGI ([9]; K562, SRB, 48 hours exposure): 1.97E−09 Molar
- CC50 ([9]; K562, SRB, 48 hours exposure): 14.4 nM
- LNCAP TGI ([10]; LNCAP, SRB, 48 hours exposure): 3.64E−09 Molar
- GI50 ([10]; read-out: LNCAP GI50, LNCAP, SRB, 48 hours exposure): 1.78 nM
- CC50 ([10]; read-out: LNCAP LC50, LNCAP, SRB, 48 hours exposure): 7.44 nM
- LOVO-DOX TGI [11, 17]: 9.62E−07 Molar
- GI50 [11, 17]: 262 nM
- CC50 [11, 17]: 0.09 µM
- PANC-1 TGI ([12]; PANC-1, SRB, 48 hours exposure): 8.24E−09 Molar
- GI50 ([12]; PANC-1, SRB, 48 hours exposure): 3.72 nM
- CC50 ([12]; PANC-1, SRB, 48 hours exposure): 3.42 nM
- SK-BR3 TGI ([13]; SK-BR3, SRB, 48 hours exposure): 2.67E−09 Molar
- CC50 ([13]; SK-BR3, SRB, 48 hours exposure): 8.51 nM
- MEL-28 TGI ([14]; MEL-28, SRB, 48 hours exposure): 5.34E−09 Molar
- GI50 ([14]; read-out: MEL-28 GI50, MEL-28, SRB, 48 hours exposure): 2.96 nM
- CC50 ([14]; read-out: MEL-28 LC50, MEL-28, SRB, 48 hours exposure): 9.61 nM

SMILES: CCCCCCCCCCCCCCCC(=O)NC1CS[C@@H]2c3c(OC(C)=O)c(C)c4c(c3[C@H](COC1=O)N1C2[C@@H]2N[C@@H](Cc3cc(C)c(OC)c(O)c32)[C@@H]1O)OCO4 (stereo partly shown) [compound 38]
- GI50 ([1]; Homo sapiens, A549, 48 h, read-out: GI50 A549): 473 nM
- CC50 ([1]; Homo sapiens, A549, 48 h, read-out: LC50 A549): 4710 nM
- IC (TGI) ([1]; Homo sapiens, A549, 48 h, read-out: TGI A549): 1.42 µM
- GI50 ([2]; Homo sapiens, HT-29, 48 h, read-out: GI50 HT29): 653 nM
- CC50 ([2]; Homo sapiens, HT-29, 48 h, read-out: LC50 HT29): 4.73 µM
- IC (TGI) ([2]; Homo sapiens, HT-29, 48 h, read-out: TGI HT29): 1.67 µM
- GI50 ([3]; Homo sapiens, LoVo, 48 h): 358 nM
- CC50 ([3]; Homo sapiens, LoVo, 48 h): 2.51 µM
- IC (TGI) ([3]; Homo sapiens, LoVo, 48 h, read-out: LOVO TGI): 0.793 µM
- GI50 ([4]; Homo sapiens, DU-145, 48 h, read-out: GI50 DU145): 286 nM
- CC50 ([4]; Homo sapiens, DU-145, 48 h, read-out: LC50 DU145): 1110 nM
- IC (TGI) ([4]; Homo sapiens, DU-145, 48 h, read-out: TGI DU145): 0.564 µM
- GI50 ([5]; Homo sapiens, 48 h): 295 nM
- CC50 ([5]; Homo sapiens, 48 h): 1020 nM
- IC (TGI) ([5]; Homo sapiens, 48 h, read-out: HELA-APL TGI): 0.549 µM
- GI50 ([6]; Homo sapiens, HeLa, 48 h): 317 nM
- CC50 ([6]; Homo sapiens, HeLa, 48 h): 935 nM
- IC (TGI) ([6]; Homo sapiens, HeLa, 48 h, read-out: HELA TGI): 0.545 µM
- GI50 ([7]; Homo sapiens, IGROV-1, 48 h): 381 nM
- CC50 ([7]; Homo sapiens, IGROV-1, 48 h): 4180 nM
- IC (TGI) ([7]; Homo sapiens, IGROV-1, 48 h, read-out: IGROV TGI): 0.786 µM
- GI50 ([8]; Homo sapiens, 48 h): 365 nM
- CC50 ([8]; Homo sapiens, 48 h): 1480 nM
- IC (TGI) ([8]; Homo sapiens, 48 h, read-out: IGROV-ET TGI): 0.675 µM
- GI50 ([9]; Homo sapiens, K562, 48 h, read-out: K562 GI50): 193 nM
- CC50 ([9]; Homo sapiens, K562, 48 h): 1540 nM
- IC (TGI) ([9]; Homo sapiens, K562, 48 h, read-out: K562 TGI): 0.51 µM
- GI50 ([10]; Homo sapiens, LNCaP, 48 h, read-out: GI50 LNCAP): 338 nM
- CC50 ([10]; Homo sapiens, LNCaP, 48 h, read-out: LC50 LNCAP): 796 nM
- IC (TGI) ([10]; Homo sapiens, LNCaP, 48 h, read-out: TGI LNCAP): 0.518 µM
- GI50 ([11]; Homo sapiens, 48 h): 1540 nM
- CC50 ([11]; Homo sapiens, 48 h): 6.15 µM
- IC (TGI) ([11]; Homo sapiens, 48 h, read-out: LOVO-DOX TGI): 3.08 µM
- GI50 ([12]; Homo sapiens, PANC-1, 48 h): 616 nM
- CC50 ([12]; Homo sapiens, PANC-1, 48 h): 4500 nM
- IC (TGI) ([12]; Homo sapiens, PANC-1, 48 h, read-out: PANC-1 TGI): 1.38 µM
- GI50 ([13]; Homo sapiens, SK-BR-3, 48 h, read-out: SK-BR3 GI50): 194 nM
- CC50 ([13]; Homo sapiens, SK-BR-3, 48 h): 1070 nM
- IC (TGI) ([13]; Homo sapiens, SK-BR-3, 48 h, read-out: SK-BR3 TGI): 0.457 µM
- GI50 ([14]; Homo sapiens, SK-MEL-28, 48 h, read-out: GI50 MEL-28): 272 nM
- CC50 ([14]; Homo sapiens, SK-MEL-28, 48 h, read-out: LC50 MEL-28): 860 nM
- IC (TGI) ([14]; Homo sapiens, SK-MEL-28, 48 h, read-out: TGI MEL-28): 0.483 µM
